{
  "source": "paper PMC9561728",
  "about": "“Safety and efficacy of a GLP-1 and glucagon receptor dual agonist mazdutide (IBI362) 9 mg and 10 mg in Chinese adults with overweight or obesity: A randomised, placebo-controlled, multiple-ascending-dose phase 1b trial” (eClinicalMedicine, 2022)",
  "key": {"[1]": {"system": "Chinese adults with overweight or obesity", "experiment": "Change from baseline in body weight, BMI and waist circumference (MMRM), phase 1b trial", "format": "in vivo, human", "settings": "for Participants who achieved 10% body weight loss or more / Participants who achieved 15% body weight loss or more: during the study; for Participants who achieved 10% body weight loss or more / Participants who achieved 15% body weight loss or more / CFB in BMI / CFB in body weight / CFB in waist circumference / Percent CFB in body weight: n = 8", "procedure": "(§1) Secondary outcomes included pharmacokinetics, assessed by maximum observed plasma concentration (Cmax), time at which Cmax was observed (Tmax), terminal elimination half-life (t½), and area under the curve from time zero to 168 h after the first dose (AUC0–168 h) and immunogenicity, assessed by titters of anti-drug antibodies (ADAs) and neutralizing antibodies. Secondary efficacy outcomes included the change from baseline to week 12 (9 mg cohort) or week 16 (10 mg cohort) in body weight, waist circumference, BMI, as well as the change from baseline in HbA1c, lipids, transaminase and serum uric acid levels.\nThe sample size of 12 participants per cohort was empirically determined to provide preliminary safety, tolerability, pharmacokinetics data while minimizing the number of participants. No formal hypothesis testing was planned. Participants receiving placebo were pooled for analysis on the change from baseline in body weight, waist circumference and BMI.\nThe analyses for the change from baseline in body weight, waist circumference and BMI were performed using mixed-effect model for repeated measures (MMRM), with least squares mean change or mean percent change from baseline at each follow-up time analysed using a restricted maximum likelihood (REML)‐based repeated measures approach in combination with the Newton Raphson Algorithm. The MMRM included the corresponding baseline value, treatment, visit and treatment-by-visit as fixed effects and patient as a random effect, with an unstructured covariance matrix used. In case of non-converge, matrix like Variance Components and Compound Symmetry will be tested in a subsequent order until model‐convergence is achieved. The Kenward-Roger degree of freedom was used in estimating fixed effects. No missing data imputation was conducted. Point estimate of treatment difference versus placebo at week 12 for the 9 mg cohort and at week 16 for the 10 mg cohort were provided, together with corresponding 95% CI and nominal p value."}, "[2]": {"system": "Chinese adults with overweight or obesity", "settings": "low dose cohorts; cited from earlier work", "procedure": "Summary Background Mazdutide (also known as IBI362 or LY3305677), a novel once-weekly glucagon-like peptide-1 (GLP-1) and glucagon receptor dual agonist, achieved 12-week body weight loss up to 6.4% at doses up to 6 mg in Chinese adults with overweight or obesity. We further explored the safety and efficacy of mazdutide dosed up to 9 mg and 10 mg. Methods In this randomised, placebo-controlled, multiple-ascending-dose phase 1b trial, we enrolled adults (aged 18-75 years, both inclusive) with overweight (body-mass index [BMI] ≥24 kg/m^2) accompanied by hyperphagia and/or at least one obesity-re ... || A PubMed search on July 4, 2022, with the terms “glucagon-like peptide-1″, [AND] “glucagon receptor”, [AND] “dual agonist”, in the Title or Abstract yielded 31 results. […] Mazdutide dosed up to 6 mg achieved 12-week mean body weight loss up to 6.4% in Chinese adults with overweight or obesity. || Mazdutide (also known as IBI362 or LY3305677) is a once-weekly mammalian oxyntomodulin analogue. […] In a phase 1b clinical trial in Chinese adults with overweight or obesity, mazdutide dosed up to 6 mg achieved 12-week mean body weight loss up to 6.4%.[11] Given the favourable safety profile and the robust body weight loss achieved in the low-dose cohort ... || (+ 2 further places)"}, "[3]": {"system": "Chinese adults with overweight or obesity", "settings": "in vivo", "quoted_text": "The study included a 3-week screening period, a 12-week or 16-week treatment period and an 8-week safety follow-up period. During the treatment period, mazdutide or placebo was subcutaneously administered once weekly with one of the following dose-escalation regimens: 9 mg cohort (3 mg weeks 1-4; 6 mg weeks 5-8; 9 mg weeks 9-12) and 10 mg cohort (2.5 mg weeks 1-4; 5 mg weeks 5-8; 7.5 mg weeks 9-12; 10 mg weeks 13-16) (Figure S1). The escalation regimen in the 10 mg cohort provided relatively slower titration (2.5 mg every 4 weeks) to the target dose of 10 mg, and the escalation regimen in the 9 mg cohort adopted faster titration (3 mg every 4 week). Participants were required to maintain the original diet, exercise and lifestyle during the trial.\nThe primary outcomes were safety and tolerability of mazdutide. […] The severity of the TEAEs (mild, moderate or severe) and the association between an event and the study drug was assessed by investigators based on pre-specified criteria.\nSafety analyses were done in the safety population (defined as all participants who received at least one dose of the study treatment)."}, "[4]": {"experiment": "Solubility of the study drug", "format": "physicochemical", "settings": "study protocol", "procedure": "5.2.1 Physical and chemical characteristi cs of the study drug\nMolecular Weight: 4560.32 Daltons\nDescription: White to off-white powder\nSolubility: Solvent: 20 mM Tris buffer at pH 8.0 and 150 mM sodium chloride.\nSolubility: Not less than 10 mg/mL at 25 ℃.\n5.2.2 Study Drug Strength and Manufacturer\nThe IB I362 dru g produ ct is IBI362 for injection an d consists of 2 mg IB I362 and the […]\ncontents are reconstituted with sterile water for injection to obtain a clear solution of […]\ningredients tris (hydroxymethyl) aminomethane, mannitol, and sucrose.\" The vial contents are reconstituted with sterile water for injection to obtain a clear solution devoid […]\nThe dru g product stren gt h used in this stud y was 2 mg/vial, and the placebo strengt h matched the drug product and was provided b y the Sponsor.\nThe drug product and placebo should be stored under refrigerated conditions (2 ℃ […]\n5.2.4 Mode of administration\nBoth IBI362 and placebo will be administered by subcutaneous injection once a week. Each dose should be prepared and injected by the stud y nurse. See the Instructions for Use fo rdetails of the preparation and use of the study drug.\n5.3.1 Prohibited Medications\nThe following m edicatio ns and measur es ar e cont raindicated:\n1. Growth hormone and its analogues;\n2. Any systemic corticosteroid (including intravenous, oral, intra-articular) administered for ≥ 7 da ys. […]"}, "[5]": {"system": "Chinese adults with overweight or obesity", "experiment": "HbA1c and metabolic parameters, phase 1b trial", "format": "in vivo, human", "procedure": "as §1\nSummaries for other efficacy and safety variables included descriptive statistics for continuous measures (mean and standard deviation or standard error) and for categorical measures (sample size, frequency and percentages)."}, "Japanese and US subjects": {"system": "Japanese and US subjects", "settings": "single-dose (0.03, 0.1, 0.3, 1.0, 2.5, 5.0 mg) escalation, ref earlier single-dose studies quoted in protocol; cited from earlier work"}, "[6]": {"settings": "9 mg cohort, week 12, LS mean (SE), MMRM"}, "[7]": {"settings": "9 mg cohort, week 12, estimate (95% CI), MMRM"}, "[8]": {"settings": "10 mg cohort, week 16, LS mean (SE), MMRM"}, "[9]": {"settings": "10 mg cohort, week 16, estimate (95% CI), MMRM"}, "[10]": {"settings": "9 mg cohort, week 12, participants without type 2 diabetes"}},
  "data": [
    {"smiles": "CC(C)C[C@H](NC(=O)[C@H](CC(C)C)NC(=O)[C@H](Cc1c[nH]c2ccccc12)NC(=O)[C@H](CCC(=O)O)NC(=O)[C@@H](NC(=O)[C@H](Cc1ccccc1)NC(=O)[C@H](CCC(=O)O)NC(=O)[C@H](CCCCNC(=O)COCCOCCNC(=O)COCCOCCNC(=O)CC[C@H](NC(=O)CCCCCCCCCCCCCCCCCCC(=O)O)C(=O)O)NC(=O)[C@H](C)NC(=O)[C@H](CCCCN)NC(=O)[C@H](CCCCN)NC(=O)[C@H](CCC(=O)O)NC(=O)[C@H](CC(=O)O)NC(=O)[C@H](CC(C)C)NC(=O)[C@H](Cc1ccc(O)cc1)NC(=O)[C@H](CCCCN)NC(=O)[C@H](CO)NC(=O)[C@H](Cc1ccc(O)cc1)NC(=O)[C@H](CC(=O)O)NC(=O)[C@H](CO)NC(=O)[C@@H](NC(=O)[C@H](Cc1ccccc1)NC(=O)[C@@H](NC(=O)CNC(=O)[C@H](CCC(N)=O)NC(=O)C(C)(C)NC(=O)[C@@H](N)Cc1c[nH]cn1)[C@@H](C)O)[C@@H](C)O)C(C)C)C(=O)N[C@@H](CCC(=O)O)C(=O)NCC(=O)NCC(=O)N1CCC[C@H]1C(=O)N[C@@H](CO)C(=O)N[C@@H](CO)C(=O)NCC(N)=O", "note": "[Mazdutide]", "values": [
      {"measurement": "Participants who achieved 10% body weight loss or more", "setting": "[1]; 9 mg cohort", "result": 50, "unit": "%"},
      {"measurement": "Participants who achieved 15% body weight loss or more", "setting": "[1]; 9 mg cohort", "result": 25, "unit": "%"},
      {"measurement": "CFB in BMI", "setting": "[1]; [6]", "result": "−3.51 (0.46) kg/m^2"},
      {"measurement": "CFB in body weight", "setting": "[1]; [6]", "result": "−9.23 (1.2) kg"},
      {"measurement": "CFB in waist circumference", "setting": "[1]; [6]", "result": "−5.79 (1.45) cm"},
      {"measurement": "Percent CFB in body weight", "setting": "[1]; [6]", "result": "−11.7 (1.5) %"},
      {"measurement": "CFB in BMI, ETD versus pooled placebo", "setting": "[1]; [7]", "result": "−2.96 (−4.37, −1.54) kg/m^2"},
      {"measurement": "CFB in body weight, ETD versus pooled placebo", "setting": "[1]; [7]", "result": "−7.65 (−11.32, −3.98) kg"},
      {"measurement": "CFB in waist circumference, ETD versus pooled placebo", "setting": "[1]; [7]", "result": "−5.15 (−9.63, −0.67) cm"},
      {"measurement": "Percent CFB in body weight, ETD versus pooled placebo", "setting": "[1]; [7]", "result": "−9.8 (−14.4, −5.3) %"},
      {"measurement": "Participants who achieved 10% body weight loss or more", "setting": "[1]; 10 mg cohort", "result": 50, "unit": "%"},
      {"measurement": "Participants who achieved 15% body weight loss or more", "setting": "[1]; 10 mg cohort", "result": 25, "unit": "%"},
      {"measurement": "CFB in BMI", "setting": "[1]; [8]", "result": "−2.96 (0.56) kg/m^2"},
      {"measurement": "CFB in body weight", "setting": "[1]; [8]", "result": "−7.62 (1.39) kg"},
      {"measurement": "CFB in waist circumference", "setting": "[1]; [8]", "result": "−3.36 (1.59) cm"},
      {"measurement": "Percent CFB in body weight", "setting": "[1]; [8]", "result": "−9.5 (1.7) %"},
      {"measurement": "CFB in BMI, ETD versus placebo", "setting": "[1]; [9]", "result": "−1.89 (−3.63, −0.15) kg/m^2"},
      {"measurement": "CFB in body weight, ETD versus placebo", "setting": "[1]; [9]", "result": "−4.76 (−9.10, −0.43) kg"},
      {"measurement": "CFB in waist circumference, ETD versus placebo", "setting": "[1]; [9]", "result": "−1.18 (−7.65, 5.29) cm"},
      {"measurement": "Percent CFB in body weight, ETD versus placebo", "setting": "[1]; [9]", "result": "−6.2 (−11.5, −0.9) %"},
      {"measurement": "Incidence of abdominal distension", "setting": "[2]", "result": 12.5, "unit": "%"},
      {"measurement": "Incidence of diarrhoea", "setting": "[2]", "result": 37.5, "unit": "%"},
      {"measurement": "Incidence of nausea", "setting": "[2]", "result": "up to 37.5%"},
      {"measurement": "Incidence of vomiting", "setting": "[2]", "result": 12.5, "unit": "%"},
      {"measurement": "Participants with treatment-emergent adverse events", "setting": "[3]", "result": 100, "unit": "%"},
      {"measurement": "Severity of treatment-emergent adverse events", "setting": "[3]", "result": "all mild or moderate in severity"},
      {"measurement": "Solubility", "setting": "[4]; 20 mM Tris buffer at pH 8.0 and 150 mM sodium chloride, 25 ℃", "result": "Not less than 10 mg/mL"},
      {"measurement": "Solubility Description", "setting": "[4]", "result": "Sparingly or slightly soluble"},
      {"measurement": "Participants with a 0.4% HbA1c reduction from baseline", "setting": "[5]; [10]", "result": "three"},
      {"measurement": "Participants with a 0.8% HbA1c reduction from baseline", "setting": "[5]; [10]", "result": "two"},
      {"measurement": "Participants with a 0.4% HbA1c reduction from baseline", "setting": "[5]; 10 mg cohort, week 16, participants without type 2 diabetes", "result": "two"},
      {"measurement": "Metabolic parameters including triglycerides, low density lipoprotein cholesterol, total cholesterol and serum uric acid", "setting": "[5]; both dose regimens, compared with placebo", "result": "Greater improvements"},
      {"measurement": "Non-diabetic participants with slight elevation in end-of-treatment HbA1c levels", "setting": "[5]; high-dose cohorts", "result": "two"},
      {"measurement": "maximum tolerated dose (MTD) of single-dose study", "setting": "Japanese and US subjects", "result": 2.5, "unit": "mg"}
    ]}
  ]
}
